According to EP4480471A1, “SPECIFIC COMPOUNDS FOR TREATING SIGNS OF SKIN AGING AND/OR HAIR AGING” (DSM IP Assets B.V., priority 2023, dated 2024):

System: human dermal fibroblasts
Experiment: Senolytic activity study: SA-beta-galactosidase flow cytometry on a mixed 70% normal / 30% senescent cell population
Type: cell-based
Conditions: 72 hours; for Senescent cells left from 30%: normalized to untreated control, n = 4
Protocol: Normal and senescent cell populations were obtained from normal human dermal fibroblasts. For the normal cell population, the cells were seeded in cell culture medium (Dulbecco's Modified Eagle Medium supplemented with 10% serum and 1% antibiotics) and allowed to adhere and proliferate in a humidified cell incubator maintaining 37°C and 5% CO2. These were then passaged or collected when 90% confluent. For the senescent cell population, the normal fibroblast cells were at this stage shortly exposed to 200 µM H2O2 followed by normal cell culture medium. Several days later, the cells were treated again with H2O2 to obtain a fully senescent population.
Both normal and senescent populations were mixed into a 70% normal and 30% senescent cell population and represented the treatment population. Afterward, the 70% normal and 30% senescent cell population were seeded in cell culture medium and allowed to adhere in the cell incubator. After adherence, the medium was aspirated, and the treatment medium (Dulbecco's Modified Eagle Medium supplemented with 1% serum) containing the respective compounds at various concentrations (see Table 1) was added to the cells. For assay validation purposes, one condition with treatment medium only (without compound as negative control) and one condition with navitoclax (a known senolytic as positive control); both not included in the presented data. The cells were incubated in the cell incubator for at least 72 hours. Afterward, senescence-associated beta-galactosidase was visualized - a well-known senescence marker- in the cells to quantify the senescence levels using flow cytometry.
Data are normalized to the untreated control (30% senescent cells and 70% normal cells) (n = 4).

[1] = 1 µM, 70% normal and 30% senescent human dermal fibroblasts
[2] = 5 µM, 70% normal and 30% senescent human dermal fibroblasts
[3] = 25 µM, 70% normal and 30% senescent human dermal fibroblasts
[4] = concentration not given, human dermal fibroblasts

Compound	Senolytic effect [1]	Senolytic effect [2]	Senolytic effect [3]	Senescent cells left from 30% [3] [%]	Senolytic effect [4]	Senescent cells left from 30% [1] [%]	Senescent cells left from 30% [2] [%]
O=C1c2c(O)cc(O)cc2O[C@H](c2cc(O)c(O)c(O)c2)[C@H]1O [(I"2)]	yes	yes	yes	–	–	–	–
COc1cc(-c2coc3cc4c(c(OC)c3c2=O)OCO4)cc(OC)c1OC [(I'30)]	–	–	yes	26	yes	–	–
COc1ccc(C2CC(=O)c3c(O)cc(O)cc3O2)cc1O (centres unmarked) [(I"4)]	yes	yes	yes	–	–	–	–
COc1c(O[C@@H]2O[C@H](CO)[C@@H](O)[C@H](O)[C@H]2O)cc2oc(-c3ccc(O)c(O)c3)c(O)c(=O)c2c1O [(I'15)]	yes	yes	yes	–	–	–	–
O=c1cc(-c2ccc(O)c(O)c2)oc2c(O)c(O)ccc12 [(I'1)]	yes	yes	yes	–	–	–	–
O=c1c(O)c(-c2ccc(O)cc2)oc2cc(O)cc(O)c12 [(I'17)]	yes	yes	yes	–	–	–	–
COc1ccc(-c2cc(=O)c3c(OC)c(OC)c(OC)cc3o2)cc1 [(I'33)]	yes	yes	yes	–	–	–	–
O=c1c(-c2ccc(O)c(O)c2)coc2cc(O)ccc12 [(I'2)]	yes	yes	yes	–	–	–	–
O=C1CC(c2ccccc2)Oc2ccc(O)cc21 (centres unmarked) [(I"5)]	yes	yes	yes	–	–	–	–
COc1cc2oc(-c3ccccc3)cc(=O)c2c(OC)c1OC [(I'24)]	–	yes	yes	–	yes	–	–
COc1cc(O)c2c(=O)c(O)c(-c3ccc(O)c(O)c3)oc2c1 [(I'20)]	yes	yes	yes	–	–	–	–
COc1cc([C@@H]2CC(=O)c3c(O)cc(O)cc3O2)ccc1O [(I"1)]	–	–	yes	23	–	–	–
O=c1cc(-c2cc(O)c(O)c(O)c2)oc2cc(O)cc(O)c12 [(I'22)]	yes	yes	yes	–	–	–	–
COc1cc(O)c2c(=O)c(O)c(-c3ccc(O)c(OC)c3)oc2c1 [(I'19)]	yes	yes	yes	–	–	–	–
COc1cc(C2CC(=O)c3c(O)cc(O)cc3O2)ccc1O (centres unmarked) [(I"10)]	–	–	yes	22	yes	–	–
CC(C)Oc1ccc2c(=O)c(-c3ccccc3)coc2c1 [(I'16)]	yes	yes	yes	–	–	–	–
COc1cc(-c2cc(=O)c3c(O)cc(O)cc3o2)ccc1O [(I'8)]	yes	yes	yes	–	–	–	–
CC1OC(Oc2c(-c3cc(O)c(O)c(O)c3)oc3cc(O)cc(O)c3c2=O)C(O)C(O)C1O (centres unmarked) [(I'14)]	yes	yes	yes	–	–	–	–
O=c1cc(-c2ccc(O)cc2)oc2c(-c3c(O)cc(O)c4c(=O)cc(-c5ccc(O)cc5)oc34)c(O)cc(O)c12 [(I'9)]	yes	yes	yes	–	–	–	–
COc1ccc(-c2cc(=O)c3c(O)cc(O)cc3o2)cc1O [(I'27)]	yes	yes	yes	–	–	–	–

Compound	Senolytic effect [1]	Senolytic effect [2]	Senolytic effect [3]	Senescent cells left from 30% [3] [%]	Senolytic effect [4]	Senescent cells left from 30% [1] [%]	Senescent cells left from 30% [2] [%]
COc1c(-c2ccccc2)oc2ccccc2c1=O [(I'23)]	–	–	yes	21	yes	–	–
COc1ccc(-c2cc(=O)c3c(OC)cc(OC)cc3o2)cc1 [(I'5)]	yes	yes	yes	–	–	–	–
COc1cc(-c2cc(=O)c3c(O)c(OC)c(OC)c(OC)c3o2)cc(OC)c1OC [(I'29)]	yes	yes	yes	–	–	–	–
O=c1c(O)c(-c2ccc(O)cc2)oc2c(O)c(O)cc(O)c12 [(I'10)]	–	yes	yes	–	–	–	–
COc1cc(C)c2c(=O)c(-c3ccccc3)coc2c1 [(I'4)]	yes	yes	yes	–	–	–	–
COc1cc2oc(-c3ccccc3)cc(=O)c2c(O)c1O [(I'6)]	yes	yes	yes	–	–	–	–
COc1c(O)cc2oc(-c3ccc(O)c(O)c3)cc(=O)c2c1O [(I'18)]	yes	yes	yes	–	–	–	–
COc1ccc(-c2coc3cc(O)cc(O)c3c2=O)cc1 [(I'7)]	yes	yes	yes	–	–	–	–
COc1ccc(-c2cc(=O)c3c(O)cc(O[C@@H]4O[C@H](CO)[C@@H](O)[C@H](O)[C@H]4O)cc3o2)cc1O [(I'11)]	–	yes	yes	–	–	–	–
COc1cc(O)c2c(c1)OC(c1ccccc1)CC2=O (centres unmarked) [(I"6)]	yes	yes	yes	–	–	–	–
O=C1c2c(O)cc(O)cc2OC(c2cc(O)c(O)c(O)c2)C1O (centres unmarked) [(I"3)]	yes	yes	yes	–	–	–	–
O=C1CC(c2ccc(O)c(O)c2)Oc2cc(O)cc(O)c21 (centres unmarked) [(I"11)]	yes	yes	–	–	yes	–	–
O=c1c(O)c(-c2cc(O)c(O)c(O)c2)oc2cc(O)ccc12 [(I'21)]	yes	yes	yes	–	–	–	–
O=C1CC(c2ccccc2)Oc2cc(O)ccc21 (centres unmarked) [(I"8)]	yes	yes	–	–	yes	24	24
COc1cc(O)c2c(c1)OC(c1ccc(O)cc1)CC2=O (centres unmarked) [(I"7)]	yes	yes	yes	–	–	–	–
COc1cc2c(=O)c(-c3ccc(O)cc3)coc2cc1O [(I'28)]	–	–	yes	23	yes	–	–
O=c1c(O)c(-c2ccccc2O)oc2cc(O)cc(O)c12 [(I'25)]	yes	yes	yes	–	–	–	–
COc1cc(-c2oc3cc(O)ccc3c(=O)c2O)cc(OC)c1OC [(I'3)]	yes	yes	yes	–	–	–	–
O=c1c(-c2ccc(O)cc2)coc2cc(O[C@@H]3O[C@H](CO)[C@@H](O)[C@H](O)[C@H]3O)ccc12 [(I'26)]	yes	–	–	–	yes	25	–
COc1ccc(-c2cc(=O)c3ccc(O)cc3o2)cc1 [(I'32)]	yes	yes	yes	–	–	–	–
